Experimental data as given in patent US6355799B1, “Substituted benzene compounds, process for their preparation, and herbicidal and defoliant compositions containing them” (ISK Americas Incorporated, priority 1997, dated 2002).

Columns and labels:
Assay type in all cases: in vivo
[1] = test system: field corn (Zea mays L., var. Dekalb 535, CORN); assay: Pre-emerge test, crop safety; settings: for Pre-emerge phytotoxicity rating, crop damage CORN: rating scale 0-100, 14 days after application; for Pre-emerge Herbicidal Activity CORN: crop damage, phytotoxicity rating 0-100 at 14 days after application
Method in brief: (§1)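 Herbicidal damage is scored 0 (none) to 100 (complete plant death) two weeks after a simulated field spray. Rates span 15–1000 g ai/ha, delivered in acetone at 187 l/ha. For post-emergence treatments, plants have 2–3 leaves and the spray carries 0.25% v/v non-ionic surfactant.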

[2] = test system: upland rice (Oryza sp., var. Tebonnet, RICE); assay: Pre-emerge test, crop safety; settings: for Pre-emerge phytotoxicity rating, crop damage RICE: rating scale 0-100, 14 days after application; for Pre-emerge Herbicidal Activity RICE: crop damage, phytotoxicity rating 0-100 at 14 days after application
Method in brief: as §1

[3] = test system: field corn (Zea mays L., var. Dekalb 535, CORN); assay: Post-emerge test, crop safety; settings: post-emerge, crop damage rating 0-100 at 14 days after application
Method in brief: (§2)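 Each test used a mechanized track sprayer delivering 187 l/ha of acetone solution at 15–1000 g ai/ha. Post-emerge foliage at 2–3 leaves was treated with added 0.25% v/v non-ionic surfactant and bottom-watered only. Injury was assessed on day 14, where 100 means total kill.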

[4] = test system: upland rice (Oryza sp., var. Tebonnet, RICE); assay: Post-emerge test, crop safety; settings: post-emerge, crop damage rating 0-100 at 14 days after application
Method in brief: as §2

[5] = test system: redroot pigweed (Amaranthus retroflexus, AMARE); assay: Pre-emerge test, greenhouse herbicide activity screening; settings: for Pre-emerge herbicidal activity, phytotoxicity rating AMARE: rating scale 0-100, 14 days after application; for Pre-emerge Herbicidal Activity AMARE: phytotoxicity rating 0-100 at 14 days after application
Method in brief: (§3)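 Plants grown in 10 cm pots of sandy loam mix received acetone-dissolved compounds through a moving flat-fan nozzle. Doses ranged from 15 to 1000 g ai/ha. Pre-emerge pots were seeded one day earlier, post-emerge pots 8–21 days earlier. Fourteen days on, each pot was graded 0–100 for damage.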

[6] = test system: lambsquarters (Chenopodium album, CHEAL); assay: as above; settings: for Pre-emerge herbicidal activity, phytotoxicity rating CHEAL: rating scale 0-100, 14 days after application; for Pre-emerge Herbicidal Activity CHEAL: phytotoxicity rating 0-100 at 14 days after application
Method in brief: as §3

[7] = test system: sicklepod (Cassia obtusifolia, CASOB); assay: as above; settings: for Pre-emerge herbicidal activity, phytotoxicity rating CASOB: rating scale 0-100, 14 days after application; for Pre-emerge Herbicidal Activity CASOB: phytotoxicity rating 0-100 at 14 days after application
Method in brief: as §3

[8] = test system: green foxtail (Setaria viridis, SETVI); assay: as above; settings: for Pre-emerge herbicidal activity, phytotoxicity rating SETVI: rating scale 0-100, 14 days after application; for Pre-emerge Herbicidal Activity SETVI: phytotoxicity rating 0-100 at 14 days after application
Method in brief: as §3

[9] = test system: barnyardgrass (Echinochloa crus-galli, ECHCG); assay: as above; settings: for Pre-emerge herbicidal activity, phytotoxicity rating ECHCG: rating scale 0-100, 14 days after application; for Pre-emerge Herbicidal Activity ECHCG: phytotoxicity rating 0-100 at 14 days after application
Method in brief: as §3

[10] = test system: ivyleaf morningglory (Ipomoea hederacea, IPOHE); assay: as above; settings: for Pre-emerge herbicidal activity, phytotoxicity rating IPOHE: rating scale 0-100, 14 days after application; for Pre-emerge Herbicidal Activity IPOHE: phytotoxicity rating 0-100 at 14 days after application
Method in brief: as §3

[11] = test system: large crabgrass (Digitaria sanguinalis, DIGSA); assay: as above; settings: for Pre-emerge herbicidal activity, phytotoxicity rating DIGSA: rating scale 0-100, 14 days after application; for Pre-emerge Herbicidal Activity DIGSA: phytotoxicity rating 0-100 at 14 days after application
Method in brief: as §3

[12] = test system: velvetleaf (Abutilon theophrasti, ABUTH); assay: as above; settings: for Pre-emerge herbicidal activity, phytotoxicity rating ABUTH: rating scale 0-100, 14 days after application; for Pre-emerge Herbicidal Activity ABUTH: phytotoxicity rating 0-100 at 14 days after application
Method in brief: as §3

[13] = test system: johnsongrass (Sorghum halepense, SORHA); assay: as above; settings: for Pre-emerge herbicidal activity, phytotoxicity rating SORHA: rating scale 0-100, 14 days after application; for Pre-emerge Herbicidal Activity SORHA: phytotoxicity rating 0-100 at 14 days after application
Method in brief: as §3

[14] = test system: lambsquarters (Chenopodium album, CHEAL); assay: Post-emerge test, greenhouse herbicide activity screening; settings: post-emerge, phytotoxicity rating 0-100 at 14 days after application
Method in brief: (§4)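 Visual ratings on a 0-100 scale (0 no damage, 100 all plants dead) were taken at 14 days after treatment. Rates of 15-1000 g ai/ha in acetone, 187 l/ha, were sprayed onto soil one day after planting (pre-emerge) or onto 2-3 leaf plants with 0.25% v/v surfactant (post-emerge).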

[15] = test system: sicklepod (Cassia obtusifolia, CASOB); assay: as above; settings: post-emerge, phytotoxicity rating 0-100 at 14 days after application
Method in brief: as §4

[16] = test system: green foxtail (Setaria viridis, SETVI); assay: as above; settings: post-emerge, phytotoxicity rating 0-100 at 14 days after application
Method in brief: as §4

[17] = test system: barnyardgrass (Echinochloa crus-galli, ECHCG); assay: as above; settings: post-emerge, phytotoxicity rating 0-100 at 14 days after application
Method in brief: as §4

[18] = test system: ivyleaf morningglory (Ipomoea hederacea, IPOHE); assay: as above; settings: post-emerge, phytotoxicity rating 0-100 at 14 days after application
Method in brief: as §4

[19] = test system: large crabgrass (Digitaria sanguinalis, DIGSA); assay: as above; settings: post-emerge, phytotoxicity rating 0-100 at 14 days after application
Method in brief: as §4

[20] = test system: velvetleaf (Abutilon theophrasti, ABUTH); assay: as above; settings: post-emerge, phytotoxicity rating 0-100 at 14 days after application
Method in brief: as §4

[21] = test system: johnsongrass (Sorghum halepense, SORHA); assay: as above; settings: post-emerge, phytotoxicity rating 0-100 at 14 days after application
Method in brief: as §4

[22] = test system: redroot pigweed (Amaranthus retroflexus, AMARE); assay: as above; settings: post-emerge, phytotoxicity rating 0-100 at 14 days after application
Method in brief: as §4

SMILES: Nc1c(O)c(Cl)cc(F)c1N1C(=O)C2CCCCN2C1=S (single isomer, unassigned) [12-3]
- Pre-emerge phytotoxicity rating, crop damage CORN ([1]; 63 g ai/ha): 0
- Pre-emerge phytotoxicity rating, crop damage CORN ([1]; 250 g ai/ha): 0
- Pre-emerge phytotoxicity rating, crop damage RICE ([2]; 63 g ai/ha): 10
- Pre-emerge phytotoxicity rating, crop damage RICE ([2]; 250 g ai/ha): 20
- Post-emerge Herbicidal Activity CORN ([3]; 63 g ai/ha): 5
- Post-emerge Herbicidal Activity CORN ([3]; 250 g ai/ha): 10
- Post-emerge Herbicidal Activity RICE ([4]; 63 g ai/ha): 0
- Post-emerge Herbicidal Activity RICE ([4]; 250 g ai/ha): 5
- Pre-emerge herbicidal activity, phytotoxicity rating AMARE ([5]; 63 g ai/ha): 95
- Pre-emerge herbicidal activity, phytotoxicity rating AMARE ([5]; 250 g ai/ha): 100
- Pre-emerge herbicidal activity, phytotoxicity rating CHEAL ([6]; 63 g ai/ha): 100
- Pre-emerge herbicidal activity, phytotoxicity rating CHEAL ([6]; 250 g ai/ha): 100
- Pre-emerge herbicidal activity, phytotoxicity rating CASOB ([7]; 63 g ai/ha): 30
- Pre-emerge herbicidal activity, phytotoxicity rating CASOB ([7]; 250 g ai/ha): 70
- Pre-emerge herbicidal activity, phytotoxicity rating SETVI ([8]; 63 g ai/ha): 0
- Pre-emerge herbicidal activity, phytotoxicity rating SETVI ([8]; 250 g ai/ha): 30
- Pre-emerge herbicidal activity, phytotoxicity rating ECHCG ([9]; 63 g ai/ha): 0
- Pre-emerge herbicidal activity, phytotoxicity rating ECHCG ([9]; 250 g ai/ha): 0
- Pre-emerge herbicidal activity, phytotoxicity rating IPOHE ([10]; 63 g ai/ha): 0
- Pre-emerge herbicidal activity, phytotoxicity rating IPOHE ([10]; 250 g ai/ha): 90
- Pre-emerge herbicidal activity, phytotoxicity rating DIGSA ([11]; 63 g ai/ha): 0
- Pre-emerge herbicidal activity, phytotoxicity rating DIGSA ([11]; 250 g ai/ha): 30
- Pre-emerge herbicidal activity, phytotoxicity rating ABUTH ([12]; 63 g ai/ha): 100
- Pre-emerge herbicidal activity, phytotoxicity rating ABUTH ([12]; 250 g ai/ha): 100
- Pre-emerge herbicidal activity, phytotoxicity rating SORHA ([13]; 63 g ai/ha): 0
- Pre-emerge herbicidal activity, phytotoxicity rating SORHA ([13]; 250 g ai/ha): 0
- Post-emerge Herbicidal Activity CHEAL ([14]; 63 g ai/ha): 90
- Post-emerge Herbicidal Activity CHEAL ([14]; 250 g ai/ha): 100
- Post-emerge Herbicidal Activity CASOB ([15]; 63 g ai/ha): 20
- Post-emerge Herbicidal Activity CASOB ([15]; 250 g ai/ha): 80
- Post-emerge Herbicidal Activity SETVI ([16]; 63 g ai/ha): 0
- Post-emerge Herbicidal Activity SETVI ([16]; 250 g ai/ha): 0
- Post-emerge Herbicidal Activity ECHCG ([17]; 63 g ai/ha): 0
- Post-emerge Herbicidal Activity ECHCG ([17]; 250 g ai/ha): 10
- Post-emerge Herbicidal Activity IPOHE ([18]; 63 g ai/ha): 50
- Post-emerge Herbicidal Activity IPOHE ([18]; 250 g ai/ha): 90
- Post-emerge Herbicidal Activity DIGSA ([19]; 63 g ai/ha): 0
- Post-emerge Herbicidal Activity DIGSA ([19]; 250 g ai/ha): 0
- Post-emerge Herbicidal Activity ABUTH ([20]; 63 g ai/ha): 90
- Post-emerge Herbicidal Activity ABUTH ([20]; 250 g ai/ha): 90
- Post-emerge Herbicidal Activity SORHA ([21]; 63 g ai/ha): 0
- Post-emerge Herbicidal Activity SORHA ([21]; 250 g ai/ha): 50
- Post-emerge Herbicidal Activity AMARE ([22]; 63 g ai/ha): 95
- Post-emerge Herbicidal Activity AMARE ([22]; 250 g ai/ha): 99

SMILES: COc1c(Cl)cc(F)c(N2C(=O)C3=C(CCCC3)C2=O)c1NC(=O)C=Cc1ccccc1 [8-31]
- Pre-emerge Herbicidal Activity CORN ([1]; rate 63 g ai/ha): 0
- Pre-emerge Herbicidal Activity CORN ([1]; rate 250 g ai/ha): 10
- Pre-emerge Herbicidal Activity RICE ([2]; rate 63 g ai/ha): 0
- Pre-emerge Herbicidal Activity RICE ([2]; rate 250 g ai/ha): 30
- Post-emerge Herbicidal Activity CORN ([3]; 63 g ai/ha): 10
- Post-emerge Herbicidal Activity CORN ([3]; 250 g ai/ha): 10
- Post-emerge Herbicidal Activity RICE ([4]; 63 g ai/ha): 45
- Post-emerge Herbicidal Activity RICE ([4]; 250 g ai/ha): 30
- Pre-emerge Herbicidal Activity AMARE ([5]; rate 63 g ai/ha): 90
- Pre-emerge Herbicidal Activity AMARE ([5]; rate 250 g ai/ha): 100
- Pre-emerge Herbicidal Activity CHEAL ([6]; rate 63 g ai/ha): 100
- Pre-emerge Herbicidal Activity CHEAL ([6]; rate 250 g ai/ha): 100
- Pre-emerge Herbicidal Activity CASOB ([7]; rate 63 g ai/ha): 0
- Pre-emerge Herbicidal Activity CASOB ([7]; rate 250 g ai/ha): 20
- Pre-emerge Herbicidal Activity SETVI ([8]; rate 63 g ai/ha): 10
- Pre-emerge Herbicidal Activity SETVI ([8]; rate 250 g ai/ha): 10
- Pre-emerge Herbicidal Activity ECHCG ([9]; rate 63 g ai/ha): 0
- Pre-emerge Herbicidal Activity ECHCG ([9]; rate 250 g ai/ha): 0
- Pre-emerge Herbicidal Activity IPOHE ([10]; rate 63 g ai/ha): 0
- Pre-emerge Herbicidal Activity IPOHE ([10]; rate 250 g ai/ha): 30
- Pre-emerge Herbicidal Activity DIGSA ([11]; rate 63 g ai/ha): 0
- Pre-emerge Herbicidal Activity DIGSA ([11]; rate 250 g ai/ha): 10
- Pre-emerge Herbicidal Activity ABUTH ([12]; rate 63 g ai/ha): 60
- Pre-emerge Herbicidal Activity ABUTH ([12]; rate 250 g ai/ha): 95
- Pre-emerge Herbicidal Activity SORHA ([13]; rate 63 g ai/ha): 0
- Pre-emerge Herbicidal Activity SORHA ([13]; rate 250 g ai/ha): 10
- Post-emerge Herbicidal Activity CHEAL ([14]; 63 g ai/ha): 100
- Post-emerge Herbicidal Activity CHEAL ([14]; 250 g ai/ha): 100
- Post-emerge Herbicidal Activity CASOB ([15]; 63 g ai/ha): 60
- Post-emerge Herbicidal Activity CASOB ([15]; 250 g ai/ha): 80
- Post-emerge Herbicidal Activity SETVI ([16]; 63 g ai/ha): 20
- Post-emerge Herbicidal Activity SETVI ([16]; 250 g ai/ha): 20
- Post-emerge Herbicidal Activity IPOHE ([18]; 63 g ai/ha): 100
- Post-emerge Herbicidal Activity IPOHE ([18]; 250 g ai/ha): 100
- Post-emerge Herbicidal Activity DIGSA ([19]; 63 g ai/ha): 10
- Post-emerge Herbicidal Activity DIGSA ([19]; 250 g ai/ha): 30
- Post-emerge Herbicidal Activity ABUTH ([20]; 63 g ai/ha): 100
- Post-emerge Herbicidal Activity ABUTH ([20]; 250 g ai/ha): 100
- Post-emerge Herbicidal Activity SORHA ([21]; 63 g ai/ha): 10
- Post-emerge Herbicidal Activity SORHA ([21]; 250 g ai/ha): 30
- Post-emerge Herbicidal Activity AMARE ([22]; 63 g ai/ha): 100
- Post-emerge Herbicidal Activity AMARE ([22]; 250 g ai/ha): 100
